Tested on: OVCAR-8 complex spheroid, growth inhibition
Assay: Anticancer human tumor OVCAR-8 cell line growth inhibition [Asc];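 also: spheroids exposed to agents for 7 days before readout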;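 as to viability, T/C: percent viability relative to DMSO vehicle wells taken as 100%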
Conditions: for IC50: curve of first compound; for viability, T/C: stronger effect = lower value; active = viability on the fitted dose curve at most 10% of control; inactive = the rest
In short: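 Complex spheroids combining tumor cells with HUVEC endothelial cells and human MSCs, at 37 degrees C, 5% CO2; agents tested alone or combined, half-log dilutions from at or near clinical Cmax, or 10 microM if Cmax unknown.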

[1] = second compound 0.00316 µM, first compound 0.0316 µM
[2] = second compound 0.00316 µM, first compound 0.1 µM
[3] = second compound 0.00316 µM, first compound 0.316 µM
[4] = second compound 0.00316 µM, first compound 1 µM
[5] = second compound 0.00316 µM, first compound 3.16 µM
[6] = second compound 0.00316 µM, first compound 10 µM
[7] = second compound 0.01 µM, first compound 0.0316 µM
[8] = second compound 0.01 µM, first compound 0.1 µM
[9] = second compound 0.01 µM, first compound 0.316 µM
[10] = second compound 0.01 µM, first compound 1 µM
[11] = second compound 0.01 µM, first compound 3.16 µM
[12] = second compound 0.01 µM, first compound 10 µM
[13] = second compound 0.0316 µM, first compound 0.0316 µM
[14] = second compound 0.0316 µM, first compound 0.1 µM
[15] = second compound 0.0316 µM, first compound 0.316 µM
[16] = second compound 0.0316 µM, first compound 1 µM
[17] = second compound 0.0316 µM, first compound 3.16 µM
[18] = second compound 0.0316 µM, first compound 10 µM
[19] = second compound 0.1 µM, first compound 0.0316 µM
[20] = second compound 0.1 µM, first compound 0.1 µM
[21] = second compound 0.1 µM, first compound 0.316 µM
[22] = second compound 0.1 µM, first compound 1 µM
[23] = second compound 0.1 µM, first compound 3.16 µM
[24] = second compound 0.1 µM, first compound 10 µM
[25] = second compound 0.316 µM, first compound 0.0316 µM
[26] = second compound 0.316 µM, first compound 0.1 µM
[27] = second compound 0.316 µM, first compound 0.316 µM
[28] = second compound 0.316 µM, first compound 1 µM
[29] = second compound 0.316 µM, first compound 3.16 µM
[30] = second compound 0.316 µM, first compound 10 µM
[31] = second compound 1 µM, first compound 0.0316 µM
[32] = second compound 1 µM, first compound 0.1 µM
[33] = second compound 1 µM, first compound 0.316 µM
[34] = second compound 1 µM, first compound 1 µM
[35] = second compound 1 µM, first compound 3.16 µM
[36] = second compound 1 µM, first compound 10 µM
[37] = second compound 0.00316 µM, first compound 0.00949 µM
[38] = second compound 0.00316 µM, first compound 0.03 µM
[39] = second compound 0.00316 µM, first compound 0.0949 µM
[40] = second compound 0.00316 µM, first compound 0.3 µM
[41] = second compound 0.00316 µM, first compound 0.949 µM
[42] = second compound 0.00316 µM, first compound 3 µM
[43] = second compound 0.01 µM, first compound 0.00949 µM
[44] = second compound 0.01 µM, first compound 0.03 µM
[45] = second compound 0.01 µM, first compound 0.0949 µM
[46] = second compound 0.01 µM, first compound 0.3 µM
[47] = second compound 0.01 µM, first compound 0.949 µM
[48] = second compound 0.01 µM, first compound 3 µM
[49] = second compound 0.0316 µM, first compound 0.00949 µM
[50] = second compound 0.0316 µM, first compound 0.03 µM
[51] = second compound 0.0316 µM, first compound 0.0949 µM
[52] = second compound 0.0316 µM, first compound 0.3 µM
[53] = second compound 0.0316 µM, first compound 0.949 µM
[54] = second compound 0.0316 µM, first compound 3 µM
[55] = second compound 0.1 µM, first compound 0.00949 µM
[56] = second compound 0.1 µM, first compound 0.03 µM
[57] = second compound 0.1 µM, first compound 0.0949 µM
[58] = second compound 0.1 µM, first compound 0.3 µM
[59] = second compound 0.1 µM, first compound 0.949 µM
[60] = second compound 0.1 µM, first compound 3 µM
[61] = second compound 0.316 µM, first compound 0.00949 µM
[62] = second compound 0.316 µM, first compound 0.03 µM
[63] = second compound 0.316 µM, first compound 0.0949 µM
[64] = second compound 0.316 µM, first compound 0.3 µM
[65] = second compound 0.316 µM, first compound 0.949 µM
[66] = second compound 0.316 µM, first compound 3 µM
[67] = second compound 1 µM, first compound 0.00949 µM
[68] = second compound 1 µM, first compound 0.03 µM
[69] = second compound 1 µM, first compound 0.0949 µM
[70] = second compound 1 µM, first compound 0.3 µM
[71] = second compound 1 µM, first compound 0.949 µM
[72] = second compound 1 µM, first compound 3 µM

C#Cc1c(F)ccc2cc(O)cc(-c3ncc4c(N5CC6CCC(C5)N6)nc(OCC56CCCN5CC(F)C6)nc4c3F)c12 (stereo not drawn) + CNC(C)C(=O)NC1CN(S(=O)(=O)c2cccc(S(=O)(=O)N3CCC4CCC(C(=O)NC(c5ccccc5)c5ccccc5)N4C(=O)C(NC(=O)C(C)NC)C3)c2)CCC2CCC(C(=O)NC(c3ccccc3)c3ccccc3)N2C1=O
> 10 µM: IC50 (second compound 0.00316 µM) | IC50 (second compound 0.01 µM) | IC50 (second compound 0.0316 µM) | IC50 (second compound 0.1 µM) | IC50 (second compound 0.316 µM) | IC50 (second compound 1 µM)
inactive: viability, T/C [1] 106% | viability, T/C [2] 93.7% | viability, T/C [3] 87.8% | viability, T/C [4] 90.2% | viability, T/C [5] 101% | viability, T/C [6] 135% | viability, T/C [7] 104% | viability, T/C [8] 89.9% | viability, T/C [9] 91% | viability, T/C [10] 103% | viability, T/C [11] 96.4% | viability, T/C [12] 112% | viability, T/C [13] 89% | viability, T/C [14] 83.2% | viability, T/C [15] 83% | viability, T/C [16] 88.2% | viability, T/C [17] 96.4% | viability, T/C [18] 136% | viability, T/C [19] 80.6% | viability, T/C [20] 95.4% | viability, T/C [21] 88.4% | viability, T/C [22] 82.7% | viability, T/C [23] 85.8% | viability, T/C [24] 98.2% | viability, T/C [25] 74% | viability, T/C [26] 87.6% | viability, T/C [27] 80.2% | viability, T/C [28] 89.9% | viability, T/C [29] 77.1% | viability, T/C [30] 119% | viability, T/C [31] 80.9% | viability, T/C [32] 86.1% | viability, T/C [33] 112% | viability, T/C [34] 91.6% | viability, T/C [35] 88.5% | viability, T/C [36] 109%

C=C(F)C(=O)N1CCN(c2nc(OCC3CCCN3C)nc3c2CCN(c2cccc4cccc(Cl)c24)C3)CC1CC#N (stereo not drawn) + CNC(C)C(=O)NC1CN(S(=O)(=O)c2cccc(S(=O)(=O)N3CCC4CCC(C(=O)NC(c5ccccc5)c5ccccc5)N4C(=O)C(NC(=O)C(C)NC)C3)c2)CCC2CCC(C(=O)NC(c3ccccc3)c3ccccc3)N2C1=O
1.63 µM: IC50 (second compound 0.00316 µM)
1.6 µM: IC50 (second compound 0.0316 µM)
1.72 µM: IC50 (second compound 0.01 µM)
active: viability, T/C [5] 4.81% | viability, T/C [6] 0.78% | viability, T/C [11] 4.17% | viability, T/C [12] 0.22% | viability, T/C [17] 3.55% | viability, T/C [18] 0.26% | viability, T/C [23] 3.72% | viability, T/C [24] 0.27% | viability, T/C [29] 3.15% | viability, T/C [30] 0.66% | viability, T/C [35] 2.44% | viability, T/C [36] 0.35%
inactive: viability, T/C [1] 114% | viability, T/C [2] 103% | viability, T/C [3] 107% | viability, T/C [4] 83.1% | viability, T/C [7] 98.7% | viability, T/C [8] 94.6% | viability, T/C [9] 96% | viability, T/C [10] 91.2% | viability, T/C [13] 97.8% | viability, T/C [14] 94.1% | viability, T/C [15] 96.1% | viability, T/C [16] 81.9% | viability, T/C [19] 83.1% | viability, T/C [20] 100% | viability, T/C [21] 95.7% | viability, T/C [22] 48.3% | viability, T/C [25] 90% | viability, T/C [26] 89.9% | viability, T/C [27] 106% | viability, T/C [28] 35.4% | viability, T/C [31] 78% | viability, T/C [32] 90.7% | viability, T/C [33] 97.1% | viability, T/C [34] 25.4%
0.756 µM: IC50 (second compound 0.316 µM)
0.958 µM: IC50 (second compound 0.1 µM)
0.639 µM: IC50 (second compound 1 µM)

CCN1C(C(=O)NC23CCC(C(=O)O)(CC2)CC3)C(c2cccc(Cl)c2F)C2(C(=O)Nc3cc(Cl)ccc32)C12CCCCC2 (stereo not drawn) + CNC(C)C(=O)NC1CN(S(=O)(=O)c2cccc(S(=O)(=O)N3CCC4CCC(C(=O)NC(c5ccccc5)c5ccccc5)N4C(=O)C(NC(=O)C(C)NC)C3)c2)CCC2CCC(C(=O)NC(c3ccccc3)c3ccccc3)N2C1=O
inactive: viability, T/C [37] 119% | viability, T/C [38] 96.5% | viability, T/C [39] 104% | viability, T/C [40] 97.9% | viability, T/C [41] 106% | viability, T/C [42] 110% | viability, T/C [43] 98.4% | viability, T/C [44] 91.1% | viability, T/C [45] 95% | viability, T/C [46] 84.8% | viability, T/C [47] 105% | viability, T/C [48] 107% | viability, T/C [49] 85.4% | viability, T/C [50] 86.9% | viability, T/C [51] 92.7% | viability, T/C [52] 102% | viability, T/C [53] 102% | viability, T/C [54] 118% | viability, T/C [55] 85.3% | viability, T/C [56] 78.3% | viability, T/C [57] 99.8% | viability, T/C [58] 88.1% | viability, T/C [59] 118% | viability, T/C [60] 103% | viability, T/C [61] 98.8% | viability, T/C [62] 86.5% | viability, T/C [63] 90.2% | viability, T/C [64] 78.3% | viability, T/C [65] 90.4% | viability, T/C [66] 97.5% | viability, T/C [67] 80.5% | viability, T/C [68] 79.2% | viability, T/C [69] 95.7% | viability, T/C [70] 84.2% | viability, T/C [71] 93.3% | viability, T/C [72] 112%
> 3 µM: IC50 (second compound 0.00316 µM) | IC50 (second compound 0.01 µM) | IC50 (second compound 0.0316 µM) | IC50 (second compound 0.1 µM) | IC50 (second compound 0.316 µM) | IC50 (second compound 1 µM)

Cc1nc(N2CCC3(CC2)COC(C)C3N)c(CO)nc1Sc1ccnc(N)c1Cl (stereo not drawn) + CNC(C)C(=O)NC1CN(S(=O)(=O)c2cccc(S(=O)(=O)N3CCC4CCC(C(=O)NC(c5ccccc5)c5ccccc5)N4C(=O)C(NC(=O)C(C)NC)C3)c2)CCC2CCC(C(=O)NC(c3ccccc3)c3ccccc3)N2C1=O
inactive: viability, T/C [37] 130% | viability, T/C [38] 136% | viability, T/C [39] 208% | viability, T/C [40] 235% | viability, T/C [41] 260% | viability, T/C [42] 245% | viability, T/C [43] 111% | viability, T/C [44] 130% | viability, T/C [45] 163% | viability, T/C [46] 251% | viability, T/C [47] 263% | viability, T/C [48] 237% | viability, T/C [49] 93% | viability, T/C [50] 130% | viability, T/C [51] 166% | viability, T/C [52] 205% | viability, T/C [53] 248% | viability, T/C [54] 224% | viability, T/C [55] 86.7% | viability, T/C [56] 111% | viability, T/C [57] 155% | viability, T/C [58] 166% | viability, T/C [59] 208% | viability, T/C [60] 171% | viability, T/C [61] 70.7% | viability, T/C [62] 82.6% | viability, T/C [63] 109% | viability, T/C [64] 169% | viability, T/C [65] 140% | viability, T/C [66] 110% | viability, T/C [67] 81.5% | viability, T/C [68] 95.1% | viability, T/C [69] 119% | viability, T/C [70] 123% | viability, T/C [71] 116% | viability, T/C [72] 75.1%
> 3 µM: IC50 (second compound 0.00316 µM) | IC50 (second compound 0.01 µM) | IC50 (second compound 0.0316 µM) | IC50 (second compound 0.1 µM) | IC50 (second compound 0.316 µM) | IC50 (second compound 1 µM)

Reference: PubChem BioAssay AID1963437 (Molecular Pharmacology Branch, DTP, NCI, 2024)
